Each structure is given as a SMILES string.

In PubChem BioAssay AID1053203 (The Scripps Research Institute Molecular Screening Center, 2014) one finds IC50 data, which are given here for six molecules.

A short description of the assay: T. brucei bloodstream parasite growth inhibition, late-stage follow-up, counter-screen for T. brucei MetRS inhibitor project, absorbance, round 2, provider-run (AID 1053203). The conditions noted are these: T. brucei Lister 427 bloodstream growth, AlamarBlue, 48 h.

Consider `CCN(CC)C(=O)C(=O)c1cn(CC(=O)Nc2cccc(C(F)(F)F)c2)c2cc(OC)ccc12`, for which the 50% inhibitory concentration (IC50) (run 1) was over 10000 nM.
Take `CCN(CC)C(=O)C(=O)c1cn(CC(=O)Nc2cc(Cl)cc(C(F)(F)F)c2)c2ccccc12`: under “run 1”, the IC50 came out at 2640 nM. This counts as single-digit micromolar.
For the molecule `CCN(CC)C(=O)C(=O)c1cn(CC(=O)Nc2cc(C)cc(C(F)(F)F)c2)c2ccccc12`, the IC50 runs as follows: (run 1) 1720 nM; (run 2) 2090 nM.
As for `CCN(CC)C(=O)C(=O)c1cn(CC(=O)Nc2cc(C(F)(F)F)cc(C(F)(F)F)c2)c2ccccc12`, under “run 1”, the IC50 amounted to 2600 nM.
With `CCN(CC)C(=O)C(=O)c1cn(CC(=O)Nc2cc(Oc3ccccc3)cc(C(F)(F)F)c2)c2ccccc12`, the IC50 (run 1) is 1150 nM and the IC50 (run 2) came out at 1070 nM.
`CCN(CC)C(=O)C(=O)c1cn(CC(=O)Nc2cc(Br)cc(C(F)(F)F)c2)c2ccccc12` showed a 50% inhibitory concentration (IC50) (run 1) of 3360 nM.
